In experiment [1] the target is T1, Alpha-2-macroglobulin (Homo sapiens, UniProt P01023).
T1 sequence (P01023 whole entry): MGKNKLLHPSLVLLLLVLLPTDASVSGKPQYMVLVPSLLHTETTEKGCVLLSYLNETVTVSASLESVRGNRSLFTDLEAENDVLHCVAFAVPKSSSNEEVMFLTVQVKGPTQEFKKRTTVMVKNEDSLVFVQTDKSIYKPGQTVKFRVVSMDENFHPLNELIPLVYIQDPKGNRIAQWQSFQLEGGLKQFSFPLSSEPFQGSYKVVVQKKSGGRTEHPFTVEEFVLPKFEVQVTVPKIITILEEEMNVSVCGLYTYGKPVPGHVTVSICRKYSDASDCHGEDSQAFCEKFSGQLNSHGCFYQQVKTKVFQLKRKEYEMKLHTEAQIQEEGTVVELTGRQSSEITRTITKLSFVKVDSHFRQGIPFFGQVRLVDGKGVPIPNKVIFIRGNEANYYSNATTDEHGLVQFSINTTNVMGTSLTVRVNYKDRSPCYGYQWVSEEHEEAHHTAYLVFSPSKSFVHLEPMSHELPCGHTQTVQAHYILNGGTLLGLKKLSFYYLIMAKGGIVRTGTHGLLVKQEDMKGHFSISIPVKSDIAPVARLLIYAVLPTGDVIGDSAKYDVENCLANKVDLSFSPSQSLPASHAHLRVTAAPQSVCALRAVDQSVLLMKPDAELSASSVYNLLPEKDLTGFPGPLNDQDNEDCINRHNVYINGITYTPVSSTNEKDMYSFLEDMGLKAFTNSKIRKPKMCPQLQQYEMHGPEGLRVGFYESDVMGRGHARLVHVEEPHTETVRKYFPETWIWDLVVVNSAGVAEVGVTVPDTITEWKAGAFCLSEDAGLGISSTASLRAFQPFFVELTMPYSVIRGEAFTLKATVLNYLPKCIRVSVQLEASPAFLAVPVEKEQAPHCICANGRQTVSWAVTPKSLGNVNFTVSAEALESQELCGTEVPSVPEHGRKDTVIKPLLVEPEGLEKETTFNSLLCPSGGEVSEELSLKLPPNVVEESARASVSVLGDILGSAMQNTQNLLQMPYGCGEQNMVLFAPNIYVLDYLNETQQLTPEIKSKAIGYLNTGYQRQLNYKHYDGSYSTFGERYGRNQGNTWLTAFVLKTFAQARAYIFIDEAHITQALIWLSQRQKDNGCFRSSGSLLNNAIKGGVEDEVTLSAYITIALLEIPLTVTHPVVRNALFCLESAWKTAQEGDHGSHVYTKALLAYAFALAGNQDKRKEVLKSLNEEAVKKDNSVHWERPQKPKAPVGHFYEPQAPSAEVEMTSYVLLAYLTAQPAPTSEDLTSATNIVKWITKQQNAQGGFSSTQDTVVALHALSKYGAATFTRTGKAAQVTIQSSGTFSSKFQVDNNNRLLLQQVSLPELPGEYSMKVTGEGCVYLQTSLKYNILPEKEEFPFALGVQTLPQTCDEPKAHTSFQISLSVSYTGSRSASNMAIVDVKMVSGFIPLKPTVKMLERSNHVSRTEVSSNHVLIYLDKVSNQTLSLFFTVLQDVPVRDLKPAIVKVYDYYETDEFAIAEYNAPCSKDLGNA
The experiment is described as follows: Inhibition of alpha-2 macroglobulin (unknown origin).

Experiment [2] can be described thus: Inhibition of glutathione S-transferase (unknown origin). On the set-up: species or system Homo sapiens.

The values that follow come from ChEMBL document CHEMBL4145653, “Biosynthetic Baeyer-Villiger Chemistry Enables Access to Two Anthracene Scaffolds from a Single Gene Cluster in Deep-Sea-Derived Streptomyces olivaceus SCSIO T05” (J Nat Prod, 2018).

For `CC(C)CC[C@@]1(O)c2cc3c(O)cccc3cc2C(=O)[C@H](C)[C@]1(O)C(=O)O`, the IC50 (usually the point on the concentration scale where inhibition reaches its midpoint) in experiment [1] is 94 µM; in experiment [2], 26.9 µM.
`CC(C)CC[C@]1(O)[C@@]2(O)C(=O)O[C@]13C(=Cc1cccc(O)c1[C@@H]3O)C(=O)[C@@H]2C` gave an IC50 in experiment [1] of 257 µM.
